Assay results taken from ChEMBL document CHEMBL1275501, “Plasmid-mediated quinolone resistance pump QepA2 in an Escherichia coli isolate from France” (2008).
In brackets after ≈: the same amount, converted by molar mass.

Legend:
Escherichia coli [1] = test: Antimicrobial activity against Escherichia coli TOP10 harboring pQep plasmid carrying qepA2 gene by disk diffusion method; format: functional
Escherichia coli [2] = test: Antimicrobial activity against Escherichia coli TOP10 by disk diffusion method; format: functional
Escherichia coli [3] = test: Antimicrobial activity against azide-resistant Escherichia coli J53 by disk diffusion method; format: functional
Escherichia coli [4] = test: Antimicrobial activity against Escherichia coli BicA expressing blaTEM-1, blaCTX-M-15 and qepA2 gene by disk diffusion method
Escherichia coli [5] = test: Antimicrobial activity against azide-resistant Escherichia coli J53 harboring pCTX-M carrying blaCTX-M-15 and pQep plasmid carrying qepA2 gene by disk diffusion method; format: functional
Escherichia coli [6] = test: Antimicrobial activity against azide-resistant Escherichia coli J53 harboring pCTX-M plasmid carrying blaCTX-M-15 gene by disk diffusion method; format: functional
Escherichia coli [7] = test: Antimicrobial activity against Escherichia coli TOP10 harboring pQep plasmid carrying qepA2 gene by disk diffusion method in presence of beta-lactamase inhibitor clavulanic acid; format: functional
Escherichia coli [8] = test: Antimicrobial activity against Escherichia coli BicA expressing blaTEM-1, blaCTX-M-15 and qepA2 gene by disk diffusion method in presence of beta-lactamase inhibitor clavulanic acid; format: functional
Escherichia coli [9] = test: Antimicrobial activity against azide-resistant Escherichia coli J53 harboring pCTX-M carrying blaCTX-M-15 and pQep plasmid carrying qepA2 gene by disk diffusion method in presence of beta-lactamase inhibitor clavulanic acid; format: functional
Escherichia coli [10] = test: Antimicrobial activity against azide-resistant Escherichia coli J53 by disk diffusion method in presence of beta-lactamase inhibitor clavulanic acid; format: functional
Escherichia coli [11] = test: Antimicrobial activity against Escherichia coli TOP10 by disk diffusion method in presence of beta-lactamase inhibitor clavulanic acid; format: functional
Escherichia coli [12] = test: Antimicrobial activity against azide-resistant Escherichia coli J53 harboring pCTX-M plasmid carrying blaCTX-M-15 gene by disk diffusion method in presence of beta-lactamase inhibitor clavulanic acid; format: functional
Escherichia coli [13] = test: Antimicrobial activity against Escherichia coli TOP10 harboring pQep plasmid carrying qepA2 gene by disk diffusion method in presence of beta-lactamase inhibitor Tazobactam; format: functional
Escherichia coli [14] = test: Antimicrobial activity against azide-resistant Escherichia coli J53 harboring pCTX-M plasmid carrying blaCTX-M-15 gene by disk diffusion method in presence of beta-lactamase inhibitor Tazobactam; format: functional
Escherichia coli [15] = test: Antimicrobial activity against Escherichia coli TOP10 by disk diffusion method in presence of beta-lactamase inhibitor Tazobactam; format: functional
Escherichia coli [16] = test: Antimicrobial activity against azide-resistant Escherichia coli J53 by disk diffusion method in presence of beta-lactamase inhibitor Tazobactam; format: functional
Escherichia coli [17] = test: Antimicrobial activity against azide-resistant Escherichia coli J53 harboring pCTX-M carrying blaCTX-M-15 and pQep plasmid carrying qepA2 gene by disk diffusion method in presence of beta-lactamase inhibitor Tazobactam; format: functional
Escherichia coli [18] = test: Antimicrobial activity against Escherichia coli BicA expressing blaTEM-1, blaCTX-M-15 and qepA2 gene by disk diffusion method in presence of beta-lactamase inhibitor Tazobactam; format: functional

Compound | MIC (Escherichia coli [1]) [µg/mL] | MIC (Escherichia coli [2]) [µg/mL] | MIC (Escherichia coli [3]) [µg/mL] | MIC (Escherichia coli [4]) [µg/mL] | MIC (Escherichia coli [5]) [µg/mL] | MIC (Escherichia coli [6]) [µg/mL] | further results
NC[C@H]1O[C@H](O[C@H]2[C@H](O)[C@@H](O[C@H]3O[C@H](CO)[C@@H](O)[C@H](N)[C@H]3O)[C@H](N)C[C@@H]2N)[C@H](N)C[C@@H]1O [TOBRAMYCIN] | 0.5 (≈ 1.07 µM) | 0.5 (≈ 1.07 µM) | 0.12 (≈ 0.257 µM) | 0.5 (≈ 1.07 µM) | 0.25 (≈ 0.535 µM) | 0.25 (≈ 0.535 µM) | –
CCN[C@@H]1C[C@H](N)[C@@H](O[C@H]2OC(CN)=CC[C@H]2N)[C@H](O)[C@H]1O[C@H]1OC[C@](C)(O)[C@H](NC)[C@H]1O [NETILMICIN] | 0.25 (≈ 0.526 µM) | 0.25 (≈ 0.526 µM) | 0.12 (≈ 0.252 µM) | 0.5 (≈ 1.05 µM) | 0.12 (≈ 0.252 µM) | 0.12 (≈ 0.252 µM) | –
CCN1CCN(c2cc3c(cc2F)c(=O)c(C(=O)O)cn3C2CC2)CC1 [ENROFLOXACIN] | 0.008 (≈ 0.0223 µM) | 0.003 (≈ 0.00835 µM) | 0.03 (≈ 0.0835 µM) | > 32 | 0.06 (≈ 0.167 µM) | 0.06 (≈ 0.167 µM) | –
CC1(C)S[C@@H]2[C@H](NC(=O)[C@H](N)c3ccc(O)cc3)C(=O)N2[C@H]1C(=O)O [AMOXICILLIN] | > 256 | 4 (≈ 10.9 µM) | 4 (≈ 10.9 µM) | > 256 | > 256 | > 256 | MIC (Escherichia coli [7]): 16 µg/mL; MIC (Escherichia coli [8]): 16 µg/mL; MIC (Escherichia coli [9]): 16 µg/mL; MIC (Escherichia coli [10]): 4 µg/mL; MIC (Escherichia coli [11]): 4 µg/mL; MIC (Escherichia coli [12]): 16 µg/mL
CO/N=C(\C(=O)N[C@@H]1C(=O)N2C(C(=O)O)=C(COC(C)=O)CS[C@H]12)c1csc(N)n1 [CEFOTAXIME] | 0.06 (≈ 0.132 µM) | 0.06 (≈ 0.132 µM) | 0.06 (≈ 0.132 µM) | > 32 | > 32 | > 32 | –
COc1c(N2C[C@@H]3CCCN[C@@H]3C2)c(F)cc2c(=O)c(C(=O)O)cn(C3CC3)c12 [MOXIFLOXACIN] | 0.01 (≈ 0.0249 µM) | 0.004 (≈ 0.00996 µM) | – | > 32 | 0.12 (≈ 0.299 µM) | – | –
CCn1cc(C(=O)O)c(=O)c2cc(F)c(N3CCN(C)CC3)cc21 [PEFLOXACIN] | – | 0.03 (≈ 0.09 µM) | 0.06 (≈ 0.18 µM) | > 32 | 0.06 (≈ 0.18 µM) | 0.06 (≈ 0.18 µM) | –
CC1(C)S[C@@H]2[C@H](NC(=O)[C@H](C(=O)O)c3ccsc3)C(=O)N2[C@H]1C(=O)O [TICARCILLIN] | > 256 | 4 (≈ 10.4 µM) | 4 (≈ 10.4 µM) | > 256 | > 256 | > 256 | –
O=C(O)c1cn(C2CC2)c2cc(N3CCNCC3)c(F)cc2c1=O [CIPROFLOXACIN] | – | – | – | > 32 | – | – | –
CCn1cc(C(=O)O)c(=O)c2ccc(C)nc21 [NALIDIXIC ACID] | 1.5 (≈ 6.46 µM) | 1 (≈ 4.31 µM) | 4 (≈ 17.2 µM) | > 256 | 4 (≈ 17.2 µM) | 4 (≈ 17.2 µM) | –
CO/N=C(\C(=O)N[C@@H]1C(=O)N2C(C(=O)[O-])=C(C[N+]3(C)CCCC3)CS[C@H]12)c1csc(N)n1 | 0.12 (≈ 0.25 µM) | – | 0.01 (≈ 0.0208 µM) | > 32 | 16 (≈ 33.3 µM) | 16 (≈ 33.3 µM) | –
O=C(N[C@H](CO)[C@H](O)c1ccc([N+](=O)[O-])cc1)C(Cl)Cl [CHLORAMPHENICOL] | > 256 | 4 (≈ 12.4 µM) | 8 (≈ 24.8 µM) | > 256 | > 256 | 8 (≈ 24.8 µM) | –
CC(C)(O/N=C(\C(=O)N[C@@H]1C(=O)N2C(C(=O)[O-])=C(C[n+]3ccccc3)CS[C@H]12)c1csc(N)n1)C(=O)O [CEFTAZIDIME] | 0.12 (≈ 0.22 µM) | 0.06 (≈ 0.11 µM) | 0.12 (≈ 0.22 µM) | > 32 | 16 (≈ 29.3 µM) | 16 (≈ 29.3 µM) | –
CO[C@H]1/C=C/O[C@@]2(C)Oc3c(C)c(O)c4c(O)c(c(/C=N/N5CCN(C)CC5)c(O)c4c3C2=O)NC(=O)/C(C)=C\C=C\[C@H](C)[C@H](O)[C@@H](C)[C@@H](O)[C@@H](C)[C@H](OC(C)=O)[C@@H]1C [RIFAMPIN] | 16 (≈ 19.4 µM) | 16 (≈ 19.4 µM) | 8 (≈ 9.72 µM) | 16 (≈ 19.4 µM) | 8 (≈ 9.72 µM) | 8 (≈ 9.72 µM) | –
NCC[C@H](O)C(=O)N[C@@H]1C[C@H](N)[C@@H](O[C@H]2O[C@H](CN)[C@@H](O)[C@H](O)[C@H]2O)[C@H](O)[C@H]1O[C@H]1O[C@H](CO)[C@@H](O)[C@H](N)[C@H]1O [AMIKACIN] | 1 (≈ 1.71 µM) | 1 (≈ 1.71 µM) | 1 (≈ 1.71 µM) | 2 (≈ 3.42 µM) | 1 (≈ 1.71 µM) | 1 (≈ 1.71 µM) | –
GENTAMICIN | 0.25 | 0.25 | 0.12 | – | 0.12 | 0.12 | –
CC(=O)OCC1=C(C(=O)O)N2C(=O)[C@@H](NC(=O)Cc3cccs3)[C@H]2SC1 [CEPHALOTHIN] | 8 (≈ 20.2 µM) | 4 (≈ 10.1 µM) | 8 (≈ 20.2 µM) | > 256 | > 256 | > 256 | –
CC1COc2c(N3CCN(C)CC3)c(F)cc3c(=O)c(C(=O)O)cn1c23 (centres undefined) [OFLOXACIN] | – | – | – | > 32 | – | – | –
COc1c(N2CCNC(C)C2)c(F)cc2c(=O)c(C(=O)O)cn(C3CC3)c12 (centres undefined) [GATIFLOXACIN] | 0.01 (≈ 0.0266 µM) | 0.003 (≈ 0.00799 µM) | 0.01 (≈ 0.0266 µM) | > 32 | 0.12 (≈ 0.32 µM) | 0.06 (≈ 0.16 µM) | –
C[C@H]1[C@H](NC(=O)/C(=N\OC(C)(C)C(=O)O)c2csc(N)n2)C(=O)N1S(=O)(=O)O [AZTREONAM] | – | – | – | > 32 | 16 (≈ 36.7 µM) | 16 (≈ 36.7 µM) | –
COc1cc(Cc2cnc(N)nc2N)cc(OC)c1OC [TRIMETHOPRIM] | > 256 | 0.12 (≈ 0.413 µM) | 0.25 (≈ 0.861 µM) | > 256 | > 256 | 0.25 (≈ 0.861 µM) | –
CN(C)[C@@H]1C(O)=C(C(N)=O)C(=O)[C@@]2(O)C(O)=C3C(=O)c4c(O)cccc4[C@@](C)(O)[C@H]3C[C@@H]12 [TETRACYCLINE] | > 256 | 2 (≈ 4.5 µM) | 2 (≈ 4.5 µM) | > 256 | 2 (≈ 4.5 µM) | 2 (≈ 4.5 µM) | –
C[C@@H](O)[C@H]1C(=O)N2C(C(=O)O)=C(SCCNC=N)C[C@H]12 [IMIPENEM ANHYDROUS] | – | – | 0.06 (≈ 0.2 µM) | 0.5 (≈ 1.67 µM) | 0.25 (≈ 0.835 µM) | 0.25 (≈ 0.835 µM) | –
CCn1cc(C(=O)O)c(=O)c2cc(F)c(N3CCNCC3)cc21 [NORFLOXACIN] | 0.5 (≈ 1.57 µM) | 0.03 (≈ 0.0939 µM) | 0.06 (≈ 0.188 µM) | > 256 | 1 (≈ 3.13 µM) | 0.06 (≈ 0.188 µM) | –
Cc1cc(NS(=O)(=O)c2ccc(N)cc2)no1 [SULFAMETHOXAZOLE] | > 256 | 16 (≈ 63.2 µM) | 16 (≈ 63.2 µM) | > 256 | > 256 | 16 (≈ 63.2 µM) | –
CCN1CCN(C(=O)N[C@@H](C(=O)N[C@@H]2C(=O)N3[C@@H]2SC(C)(C)[C@@H]3C(=O)O)c2ccccc2)C(=O)C1=O [PIPERACILLIN] | > 256 | 2 (≈ 3.86 µM) | 2 (≈ 3.86 µM) | > 256 | > 256 | > 256 | MIC (Escherichia coli [13]): 2 µg/mL; MIC (Escherichia coli [14]): 2 µg/mL; MIC (Escherichia coli [15]): 1 µg/mL; MIC (Escherichia coli [16]): 1 µg/mL; MIC (Escherichia coli [17]): 2 µg/mL; MIC (Escherichia coli [18]): 4 µg/mL
C[C@H]1COc2c(N3CCN(C)CC3)c(F)cc3c(=O)c(C(=O)O)cn1c23.C[C@H]1COc2c(N3CCN(C)CC3)c(F)cc3c(=O)c(C(=O)O)cn1c23.O [LEVOFLOXACIN] | – | – | – | > 32 | – | – | –
